Measured values from patent US20260325685A1, “Radiopharmaceutical Compositions Targeting Carbonic Anhydrase IX and Uses Thereof” (RayzeBio, Inc., priority 2023, published 2026).
Like-named read-outs stand apart in the source and are kept apart here.

Experiments:
[1] = biological target: T1, human CA-XII (Homo sapiens, UniProt O43570); experiment: Surface Plasmon Resonance (SPR) binding kinetics to recombinant human CA-XII (Biacore 8K, single-cycle kinetics, 1:1 binding model)
T1 construct: purchased Creative BioMart CA12-261H
In short: (§1)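 First, ligand at 10 μg/mL was captured on streptavidin to 1200-1800 RU, with 180 s injection for CA-IX and 75 s for CA-XII. Next, compound (100-0.39 nM, 9 levels) in PBS-P+ with 1% DMSO was injected. Association lasted 120 s and dissociation 1200 s at 25° C.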

[2] = biological target: T2, human CA-IX (Homo sapiens, UniProt Q16790); experiment: Surface Plasmon Resonance (SPR) binding kinetics to recombinant human CA-IX (Biacore 8K, single-cycle kinetics, 1:1 binding model)
T2 construct: purchased Acro CA9-H82E3
In short: as §1

[3] = Chelated Metal: Lu-175, 25° C., pH 7.4, read-out: CAXII KD
[4] = Chelated Metal: Lu-175; SPR, 25° C., pH 7.4; read-out: CAIX KD
[5] = read-out: CAXII KD, Chelated Metal: Lu-175, 25° C., pH 7.4
[6] = read-out: CAIX KD; Chelated Metal: Lu-175; SPR, 25° C., pH 7.4

T1 sequence (O43570 25-354): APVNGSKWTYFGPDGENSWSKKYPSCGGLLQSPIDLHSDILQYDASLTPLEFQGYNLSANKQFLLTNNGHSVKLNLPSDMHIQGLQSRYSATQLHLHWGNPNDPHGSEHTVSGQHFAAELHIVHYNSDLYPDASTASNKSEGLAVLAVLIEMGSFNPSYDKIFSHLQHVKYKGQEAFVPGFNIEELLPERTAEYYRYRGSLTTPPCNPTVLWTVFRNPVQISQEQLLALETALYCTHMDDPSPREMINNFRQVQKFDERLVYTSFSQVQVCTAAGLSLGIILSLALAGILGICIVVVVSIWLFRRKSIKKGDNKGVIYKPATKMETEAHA

Row | Structure (SMILES) | Kd [1, 3] | Kd [2, 4] | other results
1 | NS(=O)(=O)c1nnc(NC(=O)C23CC(c4cn(CCNC(=O)[C@@H]5CN(C(=O)CN6CCN(CC(=O)O)CCN(CC(=O)O)CCN(CC(=O)O)CC6)CCN5C(=O)C[C@H](NC(=O)C[C@H](NC(=O)c5ccc(C6CC6)nn5)C(=O)O)C(=O)O)nn4)(C2)C3)s1.[Lu+3] [Compound 109.4] | 2.5 to 10 nM | < 1 nM | –
2 | CC(CCC(=O)N[C@@H](CC(=O)N[C@@H](CC(=O)N1CCN(C(=O)CN2CCN(CC(=O)O)CCN(CC(=O)O)CCN(CC(=O)O)CC2)C[C@H]1C(=O)NCCn1cc(C23CC(C(=O)Nc4nnc(S(N)(=O)=O)s4)(C2)C3)nn1)C(N)=O)C(N)=O)(c1ccc(O)cc1)c1ccc(O)cc1.[Lu+3] [Compound 107.47] | > 10 nM | 1 to 2.5 nM | –
3 | CC(CCC(=O)N1CCOC[C@H]1C(=O)N[C@@H](CC(=O)N1CCN(C(=O)CN2CCN(CC(=O)O)CCN(CC(=O)O)CCN(CC(=O)O)CC2)C[C@@H]1C(=O)NCCn1cc(C23CC(C(=O)Nc4nnc(S(N)(=O)=O)s4)(C2)C3)nn1)C(=O)O)(c1ccc(O)cc1)c1ccc(O)cc1.[Lu+3] [Compound 107.8] | > 10 nM | 1 to 2.5 nM | –
4 | CC(CCCC(=O)N1CCC(C(N)=O)(C(=O)NCC(=O)N2CCN(C(=O)CN3CCN(CC(=O)O)CCN(CC(=O)O)CCN(CC(=O)O)CC3)C[C@H]2C(=O)NCCn2cc(COc3ccc4nc(S(N)(=O)=O)sc4c3)nn2)CC1)(c1ccc(O)cc1)c1ccc(O)cc1.[Lu+3] [Compound 107.49] | > 10 nM | < 1 nM | –
5 | CC(CCC(=O)N1CCC[C@@H]1C(=O)N[C@@H](CC(=O)N1CCN(C(=O)CN2CCN(CC(=O)O)CCN(CC(=O)O)CCN(CC(=O)O)CC2)C[C@@H]1C(=O)NCCn1cc(C23CC(C(=O)Nc4nnc(S(N)(=O)=O)s4)(C2)C3)nn1)C(=O)O)(c1ccc(O)cc1)c1ccc(O)cc1.[Lu+3] [Compound 108.5] | > 10 nM | 2.5 to 10 nM | –
6 | CC(CCC(=O)N[C@@H](CC(=O)N[C@@H](CC(=O)N[C@@H](CCCCn1nnc(C(=O)O)c1C12CCC(C(=O)Nc3nnc(S(N)(=O)=O)s3)(CC1)CC2)C(=O)NCCOCCOCCNC(=O)CN1CCN(CC(=O)O)CCN(CC(=O)O)CCN(CC(=O)O)CC1)C(=O)O)C(=O)O)(c1ccc(O)cc1)c1ccc(O)cc1.[Lu+3] [Compound 122] | – | – | Kd [1, 5]: 1 to 2.5 nM; Kd [2, 6]: 1 to 2.5 nM
7 | CC[C@H]1CN(CC(=O)O)[C@@H](CC)CN(CC(=O)N2CCN(C(=O)CNC(=O)C3(C(N)=O)CCN(C(=O)CCCC(C)(c4ccc(O)cc4)c4ccc(O)cc4)CC3)[C@H](C(=O)NCCn3cc(C45CC(C(=O)Nc6nnc(S(N)(=O)=O)s6)(C4)C5)nn3)C2)[C@@H](CC)CN(CC(=O)O)[C@@H](CC)CN1CC(=O)O.[Lu+3] [Compound 128.1] | > 10 nM | < 1 nM | –
8 | NS(=O)(=O)c1nnc(NC(=O)C23CCC(c4cn(CCNC(=O)[C@@H]5CN(C(=O)CN6CCN(CC(=O)O)CCN(CC(=O)O)CCN(CC(=O)O)CC6)CCN5C(=O)CNC(=O)C5(C(=O)O)CCN(C(=O)CCCc6ccc(I)cc6)CC5)nn4)(CC2)CC3)s1.[Lu+3] [Compound 112.2] | 2.5 to 10 nM | < 1 nM | –
9 | CC(CCCC(=O)N1CCOC[C@H]1C(=O)N[C@@H](CC(=O)N1CCN(C(=O)CN2CCN(CC(=O)O)CCN(CC(=O)O)CCN(CC(=O)O)CC2)C[C@@H]1C(=O)NCCn1cc(C23CC(C(=O)Nc4nnc(S(N)(=O)=O)s4)(C2)C3)nn1)C(=O)O)(c1ccc(O)cc1)c1ccc(O)cc1.[Lu+3] [Compound 108.2] | > 10 nM | < 1 nM | –
10 | CC(CCC(=O)N[C@@H](CC(=O)N[C@@H](CC(=O)N1CCN(C(=O)CCOCCOCCOCCOCCN(CCOCCOCCOCCOCCC(=O)N2CCN(C(=O)C[C@H](NC(=O)C[C@H](NC(=O)CCC(C)(c3ccc(O)cc3)c3ccc(O)cc3)C(=O)O)C(=O)O)[C@H](C(=O)NCCn3cc(C45CC(C(=O)Nc6nnc(S(N)(=O)=O)s6)(C4)C5)nn3)C2)C(=O)CNC(=O)CN2CCN(CC(=O)O)CCN(CC(=O)O)CCN(CC(=O)O)CC2)C[C@H]1C(=O)NCCn1cc(C23CC(C(=O)Nc4nnc(S(N)(=O)=O)s4)(C2)C3)nn1)C(=O)O)C(=O)O)(c1ccc(O)cc1)c1ccc(O)cc1 [Compound 131.2] | – | – | Kd ([1]; Chelated Metal: None, 25° C., pH 7.4, read-out: CAXII KD): < 1 nM; Kd ([2]; Chelated Metal: None; SPR, 25° C., pH 7.4; read-out: CAIX KD): < 1 nM
11 | CC(CCC(=O)N[C@@H](CC(=O)N[C@@H](CC(=O)N[C@@H](CCCCn1cc(C23CCC(C(=O)Nc4nnc(S(N)(=O)=O)s4)(CC2)C3)nn1)C(=O)NCCOCCOCCNC(=O)CN1CCN(CC(=O)O)CCN(CC(=O)O)CCN(CC(=O)O)CC1)C(=O)O)C(=O)O)(c1ccc(O)cc1)c1ccc(O)cc1.[Lu+3] [Compound 100.1] | 1 to 2.5 nM | < 1 nM | –
12 | CC(CCC(=O)N[C@@H](CC(=O)N[C@@H](CC(=O)N[C@@H](CCCCn1cc(C23CC(C(=O)Nc4nnc(S(N)(=O)=O)s4)(C2)C3)nn1)C(=O)NCCOCCOCCNC(=O)CN1CCN(CC(=O)O)CCN(CC(=O)O)CCN(CC(=O)O)CC1)C(=O)O)C(=O)O)(c1ccc(O)cc1)c1ccc(O)cc1.[Lu+3] [Compound 100] | – | – | Kd [1, 5]: > 10 nM; Kd [2, 6]: 1 to 2.5 nM
13 | CC(CCC(=O)N[C@@H](CC(=O)N[C@@H](CC(=O)NC1(C(=O)NCCOCCOCCNC(=O)CN2CCN(CC(=O)O)CCN(CC(=O)O)CCN(CC(=O)O)CC2)CN(C(=O)Cn2cc(CCC(=O)Nc3nnc(S(N)(=O)=O)s3)nn2)C1)C(=O)O)C(=O)O)(c1ccc(O)cc1)c1ccc(O)cc1.[Lu+3] [Compound 103.3] | > 10 nM | 2.5 to 10 nM | –
